These results are taken from patent publication US7094899B2, “Vitreous form of known bradykinin antagonist” (Astellas Pharma Inc., priority 1998, dated 2006).

The conditions of data set [1]: background art statement; cited from earlier work.
A short description of data set [2]: Solubility test (JP XIII dissolution test, paddle method). The data set is classed as physicochemical. To be noted: 900 ml distilled water, paddle 50 rpm; compared with crystal types A, B, C and mixture A+C of FR173657 hydrate (FIG. 6). As to the method:
A solubility test was performed in conformity with the Japanese Pharmacopoeia(JP) XIII dissolution test, paddle method. As the test solution, 900 ml of distilled water was used. The paddle speed was set to 50 rpm. The vitreous form of FR173657 ([…]) was added to the test solution and 10 ml aliquots of the test solution were taken as samples in each measurement. Each sample was filtered through a 0.45 μm filter and analyzed by high-performance liquid chromatography.
As a control, crystal type A, crystal type B, crystal type C and a mixture of crystal types A and C of FR173657 hydrate were used.

Data set [3] in a line: Stability test of the vitreous form milled mechanically. The data set is classed as physicochemical.
Where [4] appears, read: 25° C. Relative humidity: 60%, 3 Months.
[5] abbreviates: 30° C. Relative humidity: 75%, 3 Months.
The mark [6] stands for this setting: 40° C. Relative humidity: 75%, 3 Months.

Consider `CC(=O)Nc1ccc(/C=C/C(=O)NCC(=O)N(C)c2ccc(Cl)c(COc3cccc4ccc(C)nc34)c2Cl)cn1` [amorphous form, 8-[3-[N-[(E)-3-(6-acetamidopyridin-3-yl)acryloylglycyl]-N-methylamino]-2,6-dichlorobenzyloxy]-2-methylquinoline], for which the Solid stability result in data set [1] is listed as “poor”.
Turning to `CC(=O)Nc1ccc(/C=C/C(=O)NCC(=O)N(C)c2ccc(Cl)c(COc3cccc4ccc(C)nc34)c2Cl)cn1` [vitreous form of FR173657, 8-[3-[N-[(E)-3-(6-acetamidopyridin-3-yl)acryloylglycyl]-N-methylamino]-2,6-dichlorobenzyloxy]-2-methylquinoline], the Solubility result in data set [2] is reported as “higher solubility”. The Appearance result in data set [3] (setting [4]) is reported as “Pale”; in data set [3] (setting [5]) it was “Pale”; in data set [3] (setting [6]), “Pale”; in data set [3] (40° C., 3 Months) it was “Pale”; in data set [3] (50° C., 3 Months), “Pale”; in data set [3] (Initial) it was “Pale”. Besides, the “Form DSC” value in data set [3] (setting [4]) is “Vitreous”; in data set [3] (setting [5]), “Vitreous”; in data set [3] (setting [6]) it was “Vitreous”; in data set [3] (40° C., 3 Months), “Vitreous”; in data set [3] (50° C., 3 Months), “Vitreous”; in data set [3] (Initial) it was “Vitreous”. Also, the “Form Powder X-ray” value is listed as “Vitreous” in data set [3] (setting [4]); “Vitreous” in data set [3] (setting [5]); “Vitreous” in data set [3] (setting [6]); “Vitreous” in data set [3] (40° C., 3 Months); “Vitreous” in data set [3] (50° C., 3 Months); “Vitreous” in data set [3] (Initial). The “Residual (%)” value is on record as 102.1% in data set [3] (setting [4]); 102.1% in data set [3] (setting [5]); 101.2% in data set [3] (setting [6]); 100.8% in data set [3] (40° C., 3 Months); 101.0% in data set [3] (50° C., 3 Months); 100.0% in data set [3] (Initial). Besides, the “Stability (crystallization / decomposition)” value in data set [3] (under heat, in moisture, through physical treatment, long-term storage) was “neither crystallizes nor decomposes at all”.
